Results: ChEMBL document CHEMBL4346725, “Molecular design and anticancer activities of small-molecule monopolar spindle 1 inhibitors: A Medicinal chemistry perspective” (Eur J Med Chem, 2019)

Legend:
in vivo = conditions: mouse, ip, 150 mg/kg
HCT-116 [1] = experiment: animal or person; conditions: Mus musculus, HCT-116, ip, read-out: TGI
COLO 205 = experiment: animal or person; conditions: Mus musculus, COLO 205, ip, 96 h, read-out: TGI
HCT-116 [2] = experiment: animal or person; conditions: Mus musculus, HCT-116, ip, 96 h, read-out: TGI
[3] = target: Mitogen-activated protein kinase 8 (Homo sapiens) (UniProt P45983); experiment: Inhibition of JNK1 (unknown origin) relative to control; conditions: concentration not given here
[4] = target: Mast/stem cell growth factor receptor Kit (Homo sapiens) (UniProt P10721); experiment: Inhibition of KIT (unknown origin) relative to control; conditions: concentration not given here
[5] = target: Mitogen-activated protein kinase 9 (Homo sapiens) (UniProt P45984); experiment: Inhibition of JNK2 (unknown origin) relative to control; conditions: concentration not given here
[6] = target: Focal adhesion kinase 1 (Homo sapiens) (UniProt Q05397); experiment: Inhibition of FAK (unknown origin) relative to control; conditions: concentration not given here
[7] = target: T1, Dual specificity protein kinase TTK (Homo sapiens, UniProt P33981); experiment: Inhibition of glioblastoma patient derived MPS1
T1 sequence (P33981 whole entry): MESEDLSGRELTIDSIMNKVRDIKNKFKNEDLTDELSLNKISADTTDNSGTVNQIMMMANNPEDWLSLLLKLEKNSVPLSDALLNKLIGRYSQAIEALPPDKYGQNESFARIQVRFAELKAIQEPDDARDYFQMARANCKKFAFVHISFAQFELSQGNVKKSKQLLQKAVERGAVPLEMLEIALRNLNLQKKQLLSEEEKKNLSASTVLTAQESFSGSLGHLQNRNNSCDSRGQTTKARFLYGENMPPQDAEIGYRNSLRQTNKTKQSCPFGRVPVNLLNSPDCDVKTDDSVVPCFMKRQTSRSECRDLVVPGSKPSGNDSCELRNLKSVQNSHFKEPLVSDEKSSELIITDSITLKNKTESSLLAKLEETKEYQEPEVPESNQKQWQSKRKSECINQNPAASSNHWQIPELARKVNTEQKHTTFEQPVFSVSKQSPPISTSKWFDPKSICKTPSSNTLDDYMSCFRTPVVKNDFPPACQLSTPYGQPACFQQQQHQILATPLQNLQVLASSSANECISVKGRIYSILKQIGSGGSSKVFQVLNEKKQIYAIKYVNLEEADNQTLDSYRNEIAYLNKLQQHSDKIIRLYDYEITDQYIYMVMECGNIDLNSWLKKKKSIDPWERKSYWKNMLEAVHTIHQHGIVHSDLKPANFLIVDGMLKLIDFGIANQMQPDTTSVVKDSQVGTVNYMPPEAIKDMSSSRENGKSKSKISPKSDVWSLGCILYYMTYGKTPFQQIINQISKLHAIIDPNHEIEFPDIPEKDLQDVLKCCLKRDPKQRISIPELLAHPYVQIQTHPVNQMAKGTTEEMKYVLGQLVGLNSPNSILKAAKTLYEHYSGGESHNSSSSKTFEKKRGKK

MDA-MB-231 = experiment: Antiproliferative activity against human MDA-MB-231 cells after 7 days by cell titer-glo assay; type: functional, cell-based; conditions: MDA-MB-231, 168 h
[8] = target: T1, Dual specificity protein kinase TTK; experiment: Inhibition of MPS1 (510 to 857 residues) catalytic domain (unknown origin) expressed in Escherichia coli after 15 mins by mass-spectrometry analysis
[9] = Bioavailability in mouse at 5 mg/kg, ip; type: ADME, organism-based; conditions: in vivo
[10] = Oral bioavailability in mouse at 5 mg/kg; type: ADME, organism-based; conditions: in vivo
[11] = Half life in mouse at 5 mg/kg, ip; type: ADME, organism-based; conditions: in vivo
[12] = Cmax in mouse at 5 mg/kg, po; type: ADME, organism-based; set-up: dose 5 mg/kg, route oral; conditions: in vivo
[13] = Half life in mouse at 5 mg/kg, iv; type: ADME, organism-based; conditions: in vivo
[14] = Half life in mouse at 5 mg/kg, po; type: ADME, organism-based; conditions: in vivo
[15] = Cmax in mouse at 5 mg/kg, ip; type: ADME, organism-based; set-up: dose 5 mg/kg, route intraperitoneal; conditions: in vivo
[16] = Cmax in mouse at 5 mg/kg, iv; type: ADME, organism-based; set-up: dose 5 mg/kg, route intravenous; conditions: in vivo
A549 = experiment: animal or person; conditions: Mus musculus, A549, po, read-out: TGI
[17] = target: T1, Dual specificity protein kinase TTK; experiment: Inhibition of MPS1 (unknown origin)
[18] = Half life in mouse xenografted with human A2780 cells at 90 mg/kg, po daily administered for 7 consecutive days; type: ADME, organism-based; conditions: in vivo
[19] = Oral bioavailability in mouse xenografted with human A2780 cells at 90 mg/kg daily administered for 7 consecutive days; type: ADME, organism-based; conditions: in vivo
A2780 = experiment: Antitumor activity against human A2780 cells xenografted in mouse assessed as tumor growth inhibition at 90 mg/kg, po daily administered for 7 consecutive days relative to control; type: functional; conditions: read-out: TGI
Mus musculus = experiment: In vivo inhibition of MPS1 in mouse xenografted with human HCT116 cells at 100 mg/kg, po after 24 hrs by LC-MS analysis relative to control; type: functional; conditions: HCT-116, po

Mast/stem cell growth factor receptor Kit (Homo sapiens), sequence (P10721 whole entry): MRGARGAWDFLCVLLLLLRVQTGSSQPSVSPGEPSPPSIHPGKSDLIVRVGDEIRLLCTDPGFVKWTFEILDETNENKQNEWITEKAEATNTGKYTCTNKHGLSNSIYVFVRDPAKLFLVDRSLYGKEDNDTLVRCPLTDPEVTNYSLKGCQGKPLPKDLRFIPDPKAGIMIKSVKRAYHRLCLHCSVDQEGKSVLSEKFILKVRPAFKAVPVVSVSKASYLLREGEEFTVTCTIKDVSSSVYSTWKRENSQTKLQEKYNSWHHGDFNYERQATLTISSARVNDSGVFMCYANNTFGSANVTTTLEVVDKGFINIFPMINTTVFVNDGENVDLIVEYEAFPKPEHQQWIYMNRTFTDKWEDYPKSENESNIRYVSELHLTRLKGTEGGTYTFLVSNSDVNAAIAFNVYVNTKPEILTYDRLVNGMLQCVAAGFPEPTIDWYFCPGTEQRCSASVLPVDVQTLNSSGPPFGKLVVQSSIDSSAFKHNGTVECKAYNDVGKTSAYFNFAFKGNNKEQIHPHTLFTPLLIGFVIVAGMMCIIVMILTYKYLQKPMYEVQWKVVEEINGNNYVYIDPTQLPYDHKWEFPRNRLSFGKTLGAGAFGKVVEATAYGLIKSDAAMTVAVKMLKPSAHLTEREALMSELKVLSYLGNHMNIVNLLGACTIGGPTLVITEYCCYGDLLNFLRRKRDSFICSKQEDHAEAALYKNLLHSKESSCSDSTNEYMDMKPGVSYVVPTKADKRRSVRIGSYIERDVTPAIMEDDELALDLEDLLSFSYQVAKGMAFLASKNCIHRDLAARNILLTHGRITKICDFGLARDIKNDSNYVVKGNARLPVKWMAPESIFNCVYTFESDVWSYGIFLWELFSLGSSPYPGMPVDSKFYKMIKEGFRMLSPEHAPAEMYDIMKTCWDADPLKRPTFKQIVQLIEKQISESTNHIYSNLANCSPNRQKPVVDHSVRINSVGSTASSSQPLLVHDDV
Mitogen-activated protein kinase 9 (Homo sapiens), sequence (P45984 whole entry, looked up): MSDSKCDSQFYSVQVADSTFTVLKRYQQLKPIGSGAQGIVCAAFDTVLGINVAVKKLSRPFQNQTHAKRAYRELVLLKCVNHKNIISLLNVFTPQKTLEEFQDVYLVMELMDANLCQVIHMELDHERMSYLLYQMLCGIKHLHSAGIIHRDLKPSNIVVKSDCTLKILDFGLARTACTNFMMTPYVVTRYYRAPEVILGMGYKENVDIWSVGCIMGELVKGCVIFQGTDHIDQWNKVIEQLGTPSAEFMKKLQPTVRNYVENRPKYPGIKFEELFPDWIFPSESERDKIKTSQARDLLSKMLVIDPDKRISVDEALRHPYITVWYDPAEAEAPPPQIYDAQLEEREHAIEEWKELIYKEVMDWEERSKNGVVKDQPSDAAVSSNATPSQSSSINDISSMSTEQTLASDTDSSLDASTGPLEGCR
Focal adhesion kinase 1 (Homo sapiens), sequence (Q05397 2-1052 limits assumed): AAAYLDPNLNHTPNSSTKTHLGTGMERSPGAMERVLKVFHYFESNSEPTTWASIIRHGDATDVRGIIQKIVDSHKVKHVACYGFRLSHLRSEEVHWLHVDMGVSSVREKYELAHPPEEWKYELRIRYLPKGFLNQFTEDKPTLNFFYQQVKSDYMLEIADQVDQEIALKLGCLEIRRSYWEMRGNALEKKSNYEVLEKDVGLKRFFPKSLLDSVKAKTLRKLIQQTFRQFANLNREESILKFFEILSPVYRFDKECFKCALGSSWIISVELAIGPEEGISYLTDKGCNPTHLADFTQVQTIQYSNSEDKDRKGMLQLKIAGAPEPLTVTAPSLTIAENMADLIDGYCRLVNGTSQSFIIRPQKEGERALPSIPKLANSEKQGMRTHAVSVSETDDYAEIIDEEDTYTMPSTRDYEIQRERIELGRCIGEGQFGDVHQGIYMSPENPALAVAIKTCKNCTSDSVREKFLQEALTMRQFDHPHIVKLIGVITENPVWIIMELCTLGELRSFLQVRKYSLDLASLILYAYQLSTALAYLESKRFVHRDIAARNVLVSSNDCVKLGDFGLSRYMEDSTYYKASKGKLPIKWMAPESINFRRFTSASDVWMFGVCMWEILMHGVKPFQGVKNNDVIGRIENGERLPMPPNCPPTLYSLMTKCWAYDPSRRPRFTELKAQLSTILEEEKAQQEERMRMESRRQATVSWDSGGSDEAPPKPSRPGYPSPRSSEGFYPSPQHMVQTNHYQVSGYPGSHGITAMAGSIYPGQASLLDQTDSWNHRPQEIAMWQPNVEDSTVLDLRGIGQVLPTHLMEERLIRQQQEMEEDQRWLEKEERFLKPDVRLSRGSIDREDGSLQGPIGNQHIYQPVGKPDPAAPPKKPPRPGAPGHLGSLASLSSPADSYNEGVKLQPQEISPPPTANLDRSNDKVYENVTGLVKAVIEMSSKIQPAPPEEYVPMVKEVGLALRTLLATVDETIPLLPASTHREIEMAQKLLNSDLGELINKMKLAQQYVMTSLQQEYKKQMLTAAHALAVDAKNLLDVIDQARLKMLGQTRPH
Mitogen-activated protein kinase 8 (Homo sapiens), sequence (P45983 whole entry): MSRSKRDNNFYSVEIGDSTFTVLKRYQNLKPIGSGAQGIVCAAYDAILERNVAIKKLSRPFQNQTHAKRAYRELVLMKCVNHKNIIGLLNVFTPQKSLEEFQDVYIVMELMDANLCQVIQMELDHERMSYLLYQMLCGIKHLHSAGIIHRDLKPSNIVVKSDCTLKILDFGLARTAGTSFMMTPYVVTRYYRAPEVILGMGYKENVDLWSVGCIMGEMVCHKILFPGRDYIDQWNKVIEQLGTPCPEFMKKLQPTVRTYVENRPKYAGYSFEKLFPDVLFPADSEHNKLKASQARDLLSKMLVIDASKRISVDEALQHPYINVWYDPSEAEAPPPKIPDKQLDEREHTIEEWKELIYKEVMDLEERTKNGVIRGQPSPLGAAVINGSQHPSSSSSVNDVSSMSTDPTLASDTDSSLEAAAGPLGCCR

Work on `c1nc2nc(Nc3ccc(N4CCOCC4)cc3)nc(NC3CCCCC3)c2[nH]1` [REVERSINE] yielded an AUC at 96 h (in vivo) of 0.786 ng·h/mL, an inhibition in vivo at 30 mg/kg (HCT-116 [1]) of 49% and an inhibition in vivo at 150 mg/kg (COLO 205) of 63%. It also gave an inhibition in vivo at 150 mg/kg (HCT-116 [2]) of 74%.
For `COc1cc(OC2CCN(C)CC2)ccc1Nc1ncc2c(n1)n(C1CCCC1)c(=O)n2C`, the inhibition [3] was > 40%, the inhibition [4] was > 40% and the inhibition [5] was > 40%. The inhibition [6] was > 40%.
`COc1cc(N2CCC(O)CC2)ccc1Nc1nc(Nc2ccccc2S(=O)(=O)C(C)C)c2nc[nH]c2n1` gave an IC50 [7] of 50 nM.
With `Cc1nc(N2CCOCC2)ccc1Nc1nc(NC2CCOCC2)c2c(C#N)c[nH]c2n1` the IC50 (MDA-MB-231) was 2 to 6 nM, the IC50 [8] was 2.5 nM and the Ki [8] was < 0.5 nM.
Compound `CCc1cccc(CC)c1NC(=O)c1ccn2c1CCc1cnc(Nc3ccc(N4CCN(C)CC4)cc3OC)nc1-2` has a bioavailability [9] of 90.3%, a bioavailability [10] of 45.2% and a half-life [11] of 3.4 h. For the same compound, the Cmax [12] was 188 nM, the half-life [13] was 2.9 h and the half-life [14] was 3.9 h. The Cmax [15] was 629 nM and the Cmax [16] was 3060 nM.
With `CC(C)(C)Nc1nc(Nc2ccc(C(N)=O)cc2)cc(N)c1C#N` the inhibition in vivo at 100 mg/kg (A549) was 47%.
`CC(C)CNc1nc(-c2cccc3ncccc23)cn2c(-c3ccc(C(=O)NC4CC4)cc3)cnc12` showed an IC50 [17] of 9 nM.
Work on `CCc1cccc(CC)c1NC(=O)c1nn(C)c2c1CCc1cnc(Nc3ccc(C(=O)NC4CCN(C)CC4)cc3OC(F)(F)F)nc1-2` yielded a half-life [18] of 8 h, a bioavailability [19] of 37.9% and an inhibition in vivo at 90 mg/kg (A2780) of 53%.
With `Cc1nc(N2CCOCC2)ccc1Nc1nc(NC(C)(C)CO)c2c(C#N)c[nH]c2n1` the IC50 [8] was 5.5 nM and the Ki [8] was < 0.5 nM.
Compound `O=C1c2ccccc2-c2n[nH]c3cccc1c23` has an IC50 [17] of 98 nM.
With `COc1cc(-c2cnn(C)c2)ccc1Nc1ncc2ccnc(N[C@@H](C)C(C)(C)C)c2n1` the inhibition in vivo at 100 mg/kg (Mus musculus) was > 80%.
